Where a name gives a salt, the structure may show the parent alone.
Tested on: Cholesterol Synthesis
Test: AICS screen: inhibition of cholesterol synthesis in rats (plasma [14C]cholesterol after sodium [1-14C]-acetate)
Type: in vivo
Details: single dose, oral gavage, male Sprague-Dawley rats fed 5% cholestyramine, acetate one hour after drug, blood after 50 minutes
Experimental: The ability of compounds of the present invention to inhibit the biosynthesis of cholesterol was also measured by a method (designated AICS screen) which utilizes the procedure described by A. W. Alberts et al, Proc. Natl. Acad. Sci., (1980), 77, pp 3957-3961.
In this method male Sprague-Dawley rats (200 g body weight) previously fed 5% cholestyramine for three days were randomly divided into groups (N=5/group) and given a single dose of vehicle (controls) or compound by an oral gavage at the indicated doses. One hour after drug dosing, all rats were injected intraperitoneally with sodium[1-^14 C]-acetate (18.75 μCi/rat in 0.2 ml saline). After 50 minutes, blood samples were taken, plasma obtained by centrifugation, and plasma [^14 C]cholesterol measured after saponification and extraction.

[1] = Rattus norvegicus, 50 min, 1.0 mg/kg

| Compound | change in vivo at 1 mg/kg [1] | also measured |
| --- | --- | --- |
| Cc1cc(-c2ccc(F)cc2)c(/C=C/[C@@H]2C[C@@H](O)CC(=O)O2)c(C(C)C)n1 (relative stereo) [Example 19, [4α,6β(E)]-6-[2-[4-(4-fluorophenyl)-6-methyl-2-(1-methylethyl)-3-pyridinyl]ethenyl]tetrahydro-4-hydroxy-2H-pyran-2-one] | -72% | – |
| Cc1cc(-c2ccc(F)cc2)c(/C=C/[C@@H](O)C[C@@H](O)CC(=O)O)c(C(C)C)n1 (relative stereo) [Example 21, [R*,S*-(E)]-7-[4-(4-fluorophenyl)-6-methyl-2-(1-methylethyl)-3-pyridinyl]-3,5-dihydroxy-6-heptenoic acid, hemicalcium salt] | -67% | – |
| Cc1cc(-c2ccc(F)cc2)c(/C=C/[C@@H]2C[C@@H](O)CC(=O)O2)c(C(F)(F)F)n1 (relative stereo) [Example 22, [4α,6β(E)]-6-[2-[4-(4-fluorophenyl)-6-methyl-2-(trifluoromethyl)-3-pyridinyl]ethenyl]tetrahydro-4-hydroxy-2H-pyran-2-one] | -59% | – |
| O=C1C[C@H](O)C[C@@H](/C=C/c2c(-c3ccc(F)cc3)cc(C(F)F)nc2C(F)(F)F)O1 (relative stereo) [Example 24] | -54% | – |
| CCc1cc(-c2ccc(F)cc2)c(/C=C/[C@@H]2C[C@@H](O)CC(=O)O2)c(CC)n1 (relative stereo) [Example 26, [4α,6β(E)]-6-[2-[2,6-diethyl-4(4-fluorophenyl)-3-pyridinyl]ethenyl]tetrahydro-4-hydroxy-2H-pyran-2-one] | -60% | – |
| Cc1cc(C)c(/C=C/[C@@H]2C[C@@H](O)CC(=O)O2)c(-c2ccc(F)cc2)n1 (relative stereo) [Example 28, [4α,6β(E)]-6-[2-[2-(4-fluorophenyl)-4,6-dimethyl-3-pyridinyl]ethenyl]tetrahydro-4-hydroxy-2H-pyran-2-one] | – | change in vivo at 1.5 mg/kg (Rattus norvegicus, 50 min, 1.5 mg/kg): -64% |
| CC(C)c1nc(-c2ccccc2)cc(-c2ccc(F)cc2)c1/C=C/[C@@H]1C[C@@H](O)CC(=O)O1 (relative stereo) [Example 30, [4α,6β(E)]-6-[2-[4-(4-fluorophenyl)-2-(1-methylethyl)-6-phenyl-3-pyridinyl]ethenyl]tetrahydro-4-hydroxy-2H-pyran-2-one] | -64% | – |
| CCc1nc(CC)c(C(=O)OC)c(-c2ccc(F)cc2)c1/C=C/[C@@H]1C[C@@H](O)CC(=O)O1 (relative stereo) [Example 34, [2α,4β(E)]-2,6-diethyl-4-(4-fluorophenyl)-5-[2-(tetrahydro-4-hydroxy-6-oxo-2H-pyran-2-yl)ethenyl]-3-pyridinecarboxylic acid, methyl ester] | -57% | – |
| CCc1nc(CC)c(CO)c(-c2ccc(F)cc2)c1/C=C/[C@@H]1C[C@@H](O)CC(=O)O1 (relative stereo) [Example 36] | -68% | – |
| COc1c(C)nc(C(C)C)c(/C=C/[C@@H]2C[C@@H](O)CC(=O)O2)c1-c1ccc(F)cc1 (relative stereo) [Example 38, [4α,6β(E)]-6-[2-[4-(4-fluorophenyl)-5-methoxy-6-methyl-2-(1-methylethyl)-3-pyridinyl]ethenyl]tetrahydro-4-hydroxy-2H-pyran-2-one] | -67% | – |
| C=Cc1c(C)nc(C(C)C)c(/C=C/[C@@H]2C[C@@H](O)CC(=O)O2)c1-c1ccc(F)cc1 (relative stereo) [Example 40, [4α,6β(E)]-6-[2-[5-ethenyl-4-(4-fluorophenyl)-6-methyl-2-(1-methylethyl)-3-pyidinyl]ethenyl]tetrahydro-4-hydroxy-2H-pyran-2-one] | -68% | – |
| Cc1cc(-c2ccc(F)cc2)c(/C=C/[C@@H]2C[C@@H](O)CC(=O)O2)c(C(C)C)[n+]1[O-] (relative stereo) [Example 42, 4α,6β(E)-6-[2-[4-(4-fluorophenyl)-6-methyl-2-(1-methylethyl)-3-pyridinyl]ethenyl]tetrahydro-4-hydroxy-2H-pyran-2-one, N-oxide] | -69% | – |
| CCCNC(=O)c1c(C(C)C)nc(C(C)C)c(/C=C/C2CC(O)CC(=O)O2)c1-c1ccc(F)cc1 (stereo not drawn) [Example 32, [2α,4α(E)]-4-(4-fluorophenyl)-2,6-bis(1-methylethyl)-n-propyl-5-[2-(tetrahydro-4-hydroxy-6-oxo-2H-pyran-2-yl)ethenyl]-3-pyridinecarboxamide] | – | % Inhibition of Cholesterol Synthesis (1.0 mg/kg): -25% |

— US4906624A, “6-(((Substituted)pyridin-3-yl)alkyl)-and alkenyl)-tetrahydro-4-hydroxypyran-2-one inhibitors of cholesterol biosynthesis” (Warner-Lambert Company, priority 1988, dated 1990)
